Experimental data taken from EP0028716B1, “Motility increasing peptides and their use” (HOECHST AKTIENGESELLSCHAFT, priority 1979, dated 1986).

What was measured:
[1] = tested on: Motorik des Magen-Darmtrakts und der ableitenden Harnwege; assay: Stimulation of the motility of the gastrointestinal tract and the efferent urinary tract; format: in vivo, Hund; settings: dose needed relative to the peptides of the invention
[2] = tested on: Motorik des Magen-Darmtrakts und der ableitenden Harnwege; assay: as above; format: in vivo, Hund; settings: parent compound compared with analogues varied in positions A-D
Protocol: Die erfindungsgemässen Peptide stimulieren die Motorik des Magen-Darmtrakts und der ableitenden Harnwege beim Hund und beim Menschen. Sie steigern den Ruhetonus und die segmentale Kontraktionsaktivität des Darmes und fördern dadurch sekundär auch die Wasserresorption aus dem Darmlumen (lleum).
Die erfindungsgemässen Peptide wirken intravenös bereits in einer Dosierung von 10 ng/kg und können unbedenklich auch in höherer Dosierung angewandt werden. […] Das parasympathomimetisch wirkende Carbaminoylcholin benötigt für die gleiche Wirkung etwa eine 10 fache Dosierung. So zählen die erfindungsgemässen Peptide zu den stärksten Effektoren der Motorik des Magen-Darmtrakts und der ableitenden Harnwege. Ihre morphinähnliche Wirkung ist zwar bekannt, doch überschreiten bei der geringen erforderlichen Dosierung weder nach intravenöser, subcutaner noch intranasaler Anwendung die wirksamen Dosen die Blut-Hirn-Schranke. Sie üben deshalb in der für den erfindungsgemässen Zweck erforderlichen Menge keine Wirkungen im Zentralnervensystem aus.

In the case of `C[N+](C)(C)CCOC(N)=O` [Carbaminoylcholin], the “höhere Dosierung für ähnliche / gleiche Wirkung” value [1] is reported as ~10 fach.

With Enkephalin the “Wirkung (motility stimulation, in words)” value [2] was “sehr schwach wirksamen”.
